According to US5574008A, “Biologically active fragments of glucagon-like insulinotropic peptide” (Eli Lilly and Company, priority 1994, dated 1996):

Target: T1, rat GLP-1 receptor (Rattus norvegicus, UniProt P32301)
T1 construct: expressed in transfected cells; host or cells: Dihydrofolate reductase-deficient Chinese hamster ovary cell line DXB-11; membrane preparation
T1 sequence (P32301 22-463): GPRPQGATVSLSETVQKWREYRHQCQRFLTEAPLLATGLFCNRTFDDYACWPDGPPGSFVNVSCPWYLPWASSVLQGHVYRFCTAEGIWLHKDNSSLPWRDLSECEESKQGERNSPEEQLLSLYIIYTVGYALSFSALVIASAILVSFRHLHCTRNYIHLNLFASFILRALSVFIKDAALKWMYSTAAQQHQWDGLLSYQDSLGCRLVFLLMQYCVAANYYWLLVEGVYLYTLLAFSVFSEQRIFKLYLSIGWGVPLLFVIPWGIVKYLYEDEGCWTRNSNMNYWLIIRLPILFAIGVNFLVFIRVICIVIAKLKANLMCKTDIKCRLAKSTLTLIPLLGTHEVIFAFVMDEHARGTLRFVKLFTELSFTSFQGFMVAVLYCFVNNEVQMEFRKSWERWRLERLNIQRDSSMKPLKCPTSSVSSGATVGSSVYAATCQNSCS
Assay: In vitro GLP-1 agonist cAMP assay (particle concentration fluorescence immunoassay, membrane preparation)
Assay type: biochemical
Procedure: Cells were grown to confluency in 10% dialyzed fetal bovine serum/high glucose Dulbecco's Modified Eagle Medium with 0.1% proline at 37° C. The cell were then harvested, and membranes were prepared by first washing the cells with phosphate buffered saline (PBS), then twice with cold buffer (25 mM 4-(2-hydroxyethyl)-1 piperazineethanesulfonic acid (HEPES), 2 mM MgCl2, 1 mM ethylenedinitrilo-tetraacetic acid (EDTA), 20 μg/ml Leupeptin, 1 mM phenylmethyl sulfonyl fluoride (PMSF), 2 μg/ml Aprotinin, 50 μg/ml Trypsin Inhibitor, pH 8.0). The washed cells were resuspended in cold buffer, lysed in a glass Teflon homogenizer and then centrifuged at 35,300 g for 30 minutes at 4° C. The supernatant was removed and the pellet resuspended in cold buffer and homogenized. Two hundred μl aliquots (3.2 mg/ml) were stored at -80° C.
Briefly, 10 μl of membrane prep (80 μg/ml) was preincubated with 10 μl of test compound or reference compound in buffer (25 mM HEPES, 0.2% (w/v) bovine serum albumin (BSA), pH 7.6) at 32° C. for 10 minutes. Five μl of reaction buffer (25 mM HEPES, 0.2% (w/v) BSA, 13 mM (CH3 C00)2 Mg.4H2 O, 4 mM adenosine-5'-triphosphate (ATP), 40 nM guanosine 5'-O-3'thiotriphosphate (GTP-∂-s), 25 mM creatine phosphate, creatine kinase 250 U/ml, 1 mM 3-Isobutyl-1-methyl xanthine (IBMX), pH 7.6) was added and incubated for an additional 30 minutes. Incubations were stopped by adding 25 μl 10 mM EDTA and fluorescent tracer (cAMP-β phycoerythrin conjugate).
This assay, a particle concentration fluorescence immunoassay, was based on the competition between unlabelled cAMP and a fixed amount of fluorescent labelled cAMP for a limited number of binding sites on a cAMP specific antibody. By keeping the quantity of fluorescent ligand and antibody fixed, the amount of fluorescent ligand bound by the antibody was inversely proportional to the concentration of unlabelled cAMP. The antibody-bound cAMP was then captured by anti-rabbit IgG coated assay particles. Separation of the bound antibody fraction was achieved by filtration on Fluoricon®-Ca Assay Plates. After measuring the fluorescence in the pellet, the amount of bound fluorescent cAMP was calculated. The rate of cAMP production (pmol/min/mg) was then determined by interpolation from a standard curve.

cAMP produced (Dose 0.005 nM): 21.165 pmol/min/mg
cAMP produced (Dose 0.01 nM): 21.743 pmol/min/mg
cAMP produced (Dose 0.02 nM): 20.678 pmol/min/mg
cAMP produced (Dose 0.05 nM): 22.602 pmol/min/mg
cAMP produced (Dose 0.1 nM): 22.033 pmol/min/mg
cAMP produced (Dose 0.4 nM): 21.460 pmol/min/mg
cAMP produced (Dose 1 nM): 21.588 pmol/min/mg
cAMP produced (Dose 4 nM): 21.046 pmol/min/mg
cAMP produced (Dose 10 nM): 22.320 pmol/min/mg
cAMP produced (Dose 100 nM): 19.156 pmol/min/mg
SMILES: CC[C@H](C)[C@H](NC(=O)[C@H](Cc1ccccc1)NC(=O)[C@H](CCC(=O)O)NC(=O)[C@H](CCCCN)NC(=O)[C@H](C)NC(=O)[C@H](C)NC(=O)[C@H](CCC(N)=O)NC(=O)CNC(=O)[C@H](CCC(=O)O)NC(=O)[C@H](CC(C)C)NC(=O)[C@H](Cc1ccc(O)cc1)NC(=O)[C@H](CO)NC(=O)[C@H](CO)NC(=O)[C@@H](NC(=O)[C@H](CC(=O)O)NC(=O)[C@H](CO)NC(=O)[C@@H](NC(=O)[C@H](Cc1ccccc1)NC(=O)[C@@H](NC(=O)CNC(=O)[C@@H](N)CCC(=O)O)[C@@H](C)O)[C@@H](C)O)C(C)C)C(=O)N[C@@H](C)C(=O)N[C@@H](Cc1c[nH]c2ccccc12)C(=O)N[C@@H](CC(C)C)C(=O)N[C@H](C(=O)N[C@@H](CCCCN)C(=O)NCC(=O)N[C@@H](CCCNC(=N)N)C(N)=O)C(C)C [GLP-1(9-36)NH2]
